Measurements published in patent publication US8728797B2, “Yeast membrane protein expression system and its application in drug screening” (priority 2001, dated 2014).
pIC50: −log10 of the molar value. Marks after values point to notes of the source that are not given here.

Key:
[1] = target: T1, Pdr5p ATPase (Saccharomyces cerevisiae, UniProt P33302); test: Oligomycin sensitive ATPase activity of AD124567 plasma membranes; format: biochemical, S. cerevisiae
T1 construct: plasma membranes from the AD124567 yeast strain overexpressing Pdr5p; endogenous in cells; host or cells: S. cerevisiae AD124567 (pdr1-3, PDR5 intact), plasma membrane fraction
Protocol: (A) Inhibition profiles of oligomycin-sensitive Pdr5p ATPase activity by the purified peptides D-NH2-asparagine-tryptophan-tryptophan-lysine-valine-arginine-arginine-arginine-CONH2 (KN0) and its singly substituted Mtr-derivative KN20. (B) Inhibition profile with KN20 on the oligomycin-sensitive Cdr1p ATPase activity of plasma membranes from AD1002 minus the oligomycin-sensitive ATPase activity of plasma membranes from the isogenic AD1-8u^− strain.
Yeast were grown in YEPD, pH 5.5 at 30° C. until they reached late-exponential phase of growth (OD600 nm=7), washed twice in ice-cold distilled water, and incubated on ice for 30 min to minimize glucose-stimulated Pma1p activity. Cells were resuspended in homogenising medium (50 mM Tris pH 7.5, 2 mM EDTA and 1 mM phenylmethylsulfonyl fluoride) and disrupted using a Braun Homogeniser. Cell debris and unbroken cells were removed by centrifuging at 2,000×g at 4° C. for 10 min. A crude membrane fraction was isolated from the cell-free supernatant by centrifuging at 30,000×g at 4° C. for 45 min. Plasma membranes were prepared by centrifugation of the supernatant obtained after selective precipitation of mitochondria at pH 5.2 as described previously (Goffeau, A. and Dufour, J. P., 1988). […] Protein was determined using a micro-Bradford (Bio-Rad Laboratories, Hercules, Calif. [Bradford, M. M., 1976]) assay with gamma-globulin as standard. Nucleotide triphosphatase activity was measured by incubating the plasma membrane fractions (10 μg) at 30° C. in a final volume of 120 μl containing 6 mM NTP, 7 mM MgSO4 in 59 mM MES-Tris buffer pH 6.0-8.0. […] Other ATPase inhibitors (20 μM oligomycin, 20 μM aurovertin B or 100 μM vanadate were added to the reaction where indicated. After 30 min the reaction was stopped by adding 130 μl of a solution containing 1% (w/v) SDS, 0.6 M H2SO4, 1.2% (w/v) ammonium molybdate and 1.6% (w/v) ascorbic acid. Inorganic phosphate released from NTPs was measured at 750 nm after 10 min incubation at room temperature.

[2] = system: S. cerevisiae AD124567 (Pdr5p); test: Checkerboard chemosensitisation to fluconazole; format: cell-based
Protocol: (A) Checkerboard drug susceptibility assay of AD124567 in the presence of the indicated concentrations of fluconazole and KN20. (B) Disk drug susceptibility assay of AD124567. This assay was conducted, as described in Materials and methods for example 4, in the absence or presence of fluconazole (120 μg/ml), and in the presence of (1) KN0 (47 nanomole), (2) KN20 (47 nanomole) or (0) control amounts of DMSO applied to disks
(§1) Checkerboard drug susceptibility assays were used to measure the chemosensitisation of cells to fluconazole by test compounds such as Pdr5p inhibitors. Fluconazole concentration in the CSM-URA medium was varied in one dimension (between 0 and 80 μg/ml) and the concentration of the test compound was varied in the second dimension (between 0 and 40 μM). Cell inocula, growth conditions and the optical determination of growth were identical to standard liquid MIC determinations. The assays were conducted in 6 by 6 well arrays centred in a 96 well microtitre plate using buffered CSM-URA medium at pH 7.0, with fluconazole and/or peptide included in each well at the indicated concentration.

[3] = system: C. krusei B2399; test: Checkerboard chemosensitisation to fluconazole; format: cell-based
Protocol: as §1

[4] = system: C. tropicalis IFO0618; test: Checkerboard chemosensitisation to fluconazole; format: cell-based
Protocol: as §1

[5] = system: S. cerevisiae 4 (CgPdh1p); test: Checkerboard chemosensitisation to fluconazole; format: cell-based
Protocol: as §1

[6] = system: C. glabrata CBS138; test: Checkerboard chemosensitisation to fluconazole; format: cell-based
Protocol: as §1

[7] = system: S. cerevisiae 1B (CgCdr1p); test: Checkerboard chemosensitisation to fluconazole; format: cell-based
Protocol: as §1

[8] = system: C. albicans FR2 (Ben^Rp); test: Checkerboard chemosensitisation to fluconazole; format: cell-based
Protocol: as §1

[9] = system: S. cerevisiae 27A (CaCdr2p); test: Checkerboard chemosensitisation to fluconazole; format: cell-based
Protocol: as §1

[10] = system: S. cerevisiae AD12345678u-; test: Checkerboard chemosensitisation to fluconazole; format: cell-based
Protocol: as §1

[11] = system: C. dubliniensis CD36; test: Checkerboard chemosensitisation to fluconazole; format: cell-based
Protocol: as §1

[12] = target: T2, Cdr1p ATPase (Candida albicans, UniProt P43071, E1416A/I916V/K1177E/L1021S/Q214E/T842S/Y427F); test: Oligomycin sensitive ATPase/NTPase activity of AD1002 plasma membranes; format: biochemical, C. albicans
T2 construct: expressed in transfected cells; host or cells: S. cerevisiae AD1-8u- with pKEN1002 integrated at the PDR5 locus (strain AD1002), plasma membrane fraction
Protocol: Membrane fractions were isolated from S. cerevisiae AD1002 (▪) or parental AD1-8u^− cells (●). ATPase assays were carried out at 30° C. for 30 min, as described in Materials and methods for Example 2. The oligomycin-sensitive activity was determined as the difference in ATPase activity in the presence and absence of 20 μM oligomycin. […] The results are the means (+/−SD) of four determinations carried out on two membrane preparations.
(B) Inhibition profile with KN20 on the oligomycin-sensitive Cdr1p ATPase activity of plasma membranes from AD1002 minus the oligomycin-sensitive ATPase activity of plasma membranes from the isogenic AD1-8u^− strain.
Yeast were grown in YEPD, pH 5.5 at 30° C. until they reached late-exponential phase of growth (OD600 nm=7), washed twice in ice-cold distilled water, and incubated on ice for 30 min to minimize glucose-stimulated Pma1p activity. Cells were resuspended in homogenising medium (50 mM Tris pH 7.5, 2 mM EDTA and 1 mM phenylmethylsulfonyl fluoride) and disrupted using a Braun Homogeniser. Cell debris and unbroken cells were removed by centrifuging at 2,000×g at 4° C. for 10 min. A crude membrane fraction was isolated from the cell-free supernatant by centrifuging at 30,000×g at 4° C. for 45 min. Plasma membranes were prepared by centrifugation of the supernatant obtained after selective precipitation of mitochondria at pH 5.2 as described previously (Goffeau, A. and Dufour, J. P., 1988). The plasma membranes were resuspended in 10 mM Tris pH 7.0, 0.5 mM EDTA and 20% [v/v] glycerol and stored at −80° C. Protein was determined using a micro-Bradford (Bio-Rad Laboratories, Hercules, Calif. [Bradford, M. M., 1976]) assay with gamma-globulin as standard. Nucleotide triphosphatase activity was measured by incubating the plasma membrane fractions (10 μg) at 30° C. in a final volume of 120 μl containing 6 mM NTP, 7 mM MgSO4 in 59 mM MES-Tris buffer pH 6.0-8.0. To eliminate possible contributions from nonspecific phosphatases, vacuolar, or mitochondrial ATPases, 0.2 mM ammonium molybdate, 50 mM KNO3 and 10 mM NaN3, respectively, were included in assays (Monk B C, et al, 1991). Other ATPase inhibitors (20 μM oligomycin, 20 μM aurovertin B or 100 μM vanadate were added to the reaction where indicated. After 30 min the reaction was stopped by adding 130 μl of a solution containing 1% (w/v) SDS, 0.6 M H2SO4, 1.2% (w/v) ammonium molybdate and 1.6% (w/v) ascorbic acid. Inorganic phosphate released from NTPs was measured at 750 nm after 10 min incubation at room temperature.

[13] = system: S. cerevisiae AD-ERG11 (Erg11p); test: Checkerboard chemosensitisation to fluconazole; format: cell-based
Protocol: (§2) The assays were conducted, as described in Materials and methods for Example 4, in the presence of the indicated concentrations of fluconazole and KN20. D indicates cell death as measured by a failure to recover any colony forming units when samples from microtitre plate wells were cultured on solid YPD medium.
as §1

[14] = system: S. cerevisiae AD-BEN^R (Ben^Rp); test: Checkerboard chemosensitisation to fluconazole; format: cell-based
Protocol: as §2, §1

T2 sequence (P43071 whole entry Q214E/Y427F/T842S/I916V/L1021S/K1177E/E1416A): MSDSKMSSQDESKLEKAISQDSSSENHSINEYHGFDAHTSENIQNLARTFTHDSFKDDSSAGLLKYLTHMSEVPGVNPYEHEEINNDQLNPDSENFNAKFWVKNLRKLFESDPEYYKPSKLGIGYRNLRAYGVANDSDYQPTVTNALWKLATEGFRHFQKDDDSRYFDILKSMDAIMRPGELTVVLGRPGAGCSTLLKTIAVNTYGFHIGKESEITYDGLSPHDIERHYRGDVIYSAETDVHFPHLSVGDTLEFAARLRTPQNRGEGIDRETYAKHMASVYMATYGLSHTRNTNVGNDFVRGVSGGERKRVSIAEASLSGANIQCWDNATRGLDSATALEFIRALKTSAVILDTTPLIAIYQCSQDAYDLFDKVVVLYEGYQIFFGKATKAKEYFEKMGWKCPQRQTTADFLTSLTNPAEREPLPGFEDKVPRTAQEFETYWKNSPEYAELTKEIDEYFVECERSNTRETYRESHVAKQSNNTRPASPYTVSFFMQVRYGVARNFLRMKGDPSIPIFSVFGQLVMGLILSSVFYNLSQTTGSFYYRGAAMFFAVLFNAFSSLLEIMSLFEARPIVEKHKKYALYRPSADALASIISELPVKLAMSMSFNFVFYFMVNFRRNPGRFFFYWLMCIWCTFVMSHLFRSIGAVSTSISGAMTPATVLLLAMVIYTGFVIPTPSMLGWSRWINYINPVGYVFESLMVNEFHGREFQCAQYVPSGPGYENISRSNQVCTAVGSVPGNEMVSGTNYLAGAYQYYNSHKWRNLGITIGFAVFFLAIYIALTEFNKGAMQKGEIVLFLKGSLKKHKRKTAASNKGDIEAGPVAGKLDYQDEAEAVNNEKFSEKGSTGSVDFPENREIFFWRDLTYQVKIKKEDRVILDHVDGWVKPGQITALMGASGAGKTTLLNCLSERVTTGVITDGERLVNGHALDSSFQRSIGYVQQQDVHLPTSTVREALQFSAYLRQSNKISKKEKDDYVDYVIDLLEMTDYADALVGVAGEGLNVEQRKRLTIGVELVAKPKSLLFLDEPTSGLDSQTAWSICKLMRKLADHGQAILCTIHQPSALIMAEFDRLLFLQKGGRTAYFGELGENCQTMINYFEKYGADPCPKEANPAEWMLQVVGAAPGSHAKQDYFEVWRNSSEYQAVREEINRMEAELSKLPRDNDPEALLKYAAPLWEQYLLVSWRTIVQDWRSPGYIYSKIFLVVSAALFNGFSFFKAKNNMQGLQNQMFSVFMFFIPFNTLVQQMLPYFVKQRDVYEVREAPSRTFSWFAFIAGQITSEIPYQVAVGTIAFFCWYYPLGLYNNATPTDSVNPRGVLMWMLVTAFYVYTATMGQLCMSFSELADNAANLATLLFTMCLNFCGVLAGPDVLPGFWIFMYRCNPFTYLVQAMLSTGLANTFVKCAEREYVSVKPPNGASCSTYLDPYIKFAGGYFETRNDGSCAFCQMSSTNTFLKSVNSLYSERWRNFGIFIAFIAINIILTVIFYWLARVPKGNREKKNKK
T1 sequence (P33302 whole entry): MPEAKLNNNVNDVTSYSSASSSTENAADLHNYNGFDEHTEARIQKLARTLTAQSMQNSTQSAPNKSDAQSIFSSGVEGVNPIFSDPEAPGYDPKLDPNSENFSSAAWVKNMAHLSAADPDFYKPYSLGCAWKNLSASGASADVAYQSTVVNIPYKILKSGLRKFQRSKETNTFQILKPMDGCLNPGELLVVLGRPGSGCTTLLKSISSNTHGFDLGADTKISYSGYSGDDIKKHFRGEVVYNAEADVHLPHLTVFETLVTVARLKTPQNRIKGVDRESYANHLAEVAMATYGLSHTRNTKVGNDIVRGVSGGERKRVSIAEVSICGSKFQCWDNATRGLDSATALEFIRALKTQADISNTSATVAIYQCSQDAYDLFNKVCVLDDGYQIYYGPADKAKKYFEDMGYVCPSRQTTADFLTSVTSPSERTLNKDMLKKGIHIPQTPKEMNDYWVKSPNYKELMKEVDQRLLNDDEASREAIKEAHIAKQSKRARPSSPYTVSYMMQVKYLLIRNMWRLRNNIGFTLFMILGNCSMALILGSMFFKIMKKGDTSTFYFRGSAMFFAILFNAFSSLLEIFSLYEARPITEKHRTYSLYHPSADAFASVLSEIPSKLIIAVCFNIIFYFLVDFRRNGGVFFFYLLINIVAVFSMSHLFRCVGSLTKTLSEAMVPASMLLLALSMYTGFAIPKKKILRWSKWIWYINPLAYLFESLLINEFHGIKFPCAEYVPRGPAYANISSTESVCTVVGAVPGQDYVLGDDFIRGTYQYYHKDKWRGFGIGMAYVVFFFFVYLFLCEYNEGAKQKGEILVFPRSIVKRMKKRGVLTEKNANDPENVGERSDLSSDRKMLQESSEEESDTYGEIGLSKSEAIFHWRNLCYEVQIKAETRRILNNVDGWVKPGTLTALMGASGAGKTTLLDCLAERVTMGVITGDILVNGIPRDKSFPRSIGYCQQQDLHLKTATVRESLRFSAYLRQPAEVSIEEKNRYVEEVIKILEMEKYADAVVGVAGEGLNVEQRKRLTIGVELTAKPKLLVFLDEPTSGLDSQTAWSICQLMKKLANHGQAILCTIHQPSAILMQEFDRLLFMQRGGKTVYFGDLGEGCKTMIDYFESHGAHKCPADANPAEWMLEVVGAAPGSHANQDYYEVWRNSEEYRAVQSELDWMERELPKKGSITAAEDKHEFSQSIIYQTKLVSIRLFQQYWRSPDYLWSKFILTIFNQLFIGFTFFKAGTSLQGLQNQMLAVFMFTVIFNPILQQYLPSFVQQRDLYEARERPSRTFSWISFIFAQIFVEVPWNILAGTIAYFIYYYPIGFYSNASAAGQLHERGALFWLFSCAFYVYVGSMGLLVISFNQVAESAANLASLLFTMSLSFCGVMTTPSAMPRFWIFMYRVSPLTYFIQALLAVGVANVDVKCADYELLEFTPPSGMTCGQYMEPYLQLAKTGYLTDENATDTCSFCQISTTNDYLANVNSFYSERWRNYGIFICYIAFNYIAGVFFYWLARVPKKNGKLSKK

D-octapeptide NH2-Asn-Trp-Trp-Lys-Val-Arg-Arg-Arg-CONH2 with a single 4-methoxy-2,3,6-trimethylbenzenesulphonyl (Mtr) substituent on one tryptophan sidechain; Pdr5p inhibitor [KN20]
pIC50 ([1]; plasma membranes from AD124567 overexpressing Pdr5p, pH 7.5, read-out: 150 for oligomycin sensitive ATPase activity): ~5.52 | Chemosensitising concentration KN20 ([2]; AD124567 (Pdr5p)): 20 µM | Fold-sensitisation by KN20 (For FCZ MIC) ([2]; AD124567 (Pdr5p)): 10 fold | KN20 concentration that chemosensitised the Pdr5p overexpressing strain to fluconazole ([2]; pH 7): 30 µM | Chemosensitising concentration KN20 ([3]; C. krusei B2399): 80 µM | Fold-sensitisation by KN20 (For FCZ MIC) ([3]; C. krusei B2399): 2.5 fold | Chemosensitising concentration KN20 ([4]; C. tropicalis IFO0618): 10 µM | Fold-sensitisation by KN20 (For FCZ MIC) ([4]; C. tropicalis IFO0618, resistant tail eliminated): 16^a fold | Chemosensitising concentration KN20 [5]: 20 µM | Fold-sensitisation by KN20 (For FCZ MIC) [5]: 16 fold | Chemosensitising concentration KN20 ([6]; C. glabrata CBS138): 40 µM | Fold-sensitisation by KN20 (For FCZ MIC) ([6]; C. glabrata CBS138): 4 fold | Chemosensitising concentration KN20 [7]: 15 µM | Fold-sensitisation by KN20 (For FCZ MIC) [7]: 8 fold | Chemosensitising concentration KN20 [8]: 20 µM | Fold-sensitisation by KN20 (For FCZ MIC) [8]: 4 fold | Chemosensitising concentration KN20 [9]: 20 µM | Fold-sensitisation by KN20 (For FCZ MIC) [9]: 4 fold | Chemosensitising concentration KN20 ([10]; S. cerevisiae AD12345678u-): 7.5 µM | Fold-sensitisation by KN20 (For FCZ MIC) ([10]; S. cerevisiae AD12345678u-): 2 fold | Chemosensitising concentration KN20 ([11]; C. dubliniensis CD36): 80 µM | Fold-sensitisation by KN20 (For FCZ MIC) ([11]; C. dubliniensis CD36, resistant tail eliminated): 64.5^a fold | pIC50 ([12]; AD1002 plasma membranes, read-out: 150 for oligomycin sensitive ATPase activity): ~5.10 | Chemosensitising concentration KN20 ([13]; AD-ERG11 (Erg11p)): 20 µM | Fold-sensitisation by KN20 (For FCZ MIC) ([13]; AD-ERG11 (Erg11p)): 8 fold | Chemosensitising concentration KN20 [14]: 20 µM | Fold-sensitisation by KN20 (For FCZ MIC) [14]: 16 fold

OC(Cn1cncn1)(Cn1cncn1)c1ccc(F)cc1F [fluconazole]
effect on oligomycin sensitive Pdr5p ATPase activity ([1]; in vitro): does not affect | Chemosensitising concentration FCZ [2]: 60 µg/mL | Chemosensitising concentration FCZ [3]: 80 µg/mL | Chemosensitising concentration FCZ [4]: 10 µg/mL | Chemosensitising concentration FCZ ([5]; with KN20): 1.25 µg/mL | Chemosensitising concentration FCZ [6]: 20 µg/mL | Chemosensitising concentration FCZ ([7]; with KN20): 40 µg/mL | Chemosensitising concentration FCZ ([8]; with KN20): 8 µg/mL | Chemosensitising concentration FCZ ([9]; with KN20): 20 µg/mL | Chemosensitising concentration FCZ [10]: 0.125 µg/mL | Chemosensitising concentration FCZ [11]: 0.31 µg/mL | effect on oligomycin sensitive Cdr1p ATPase activity ([12]; in vitro): does not affect | Chemosensitising concentration FCZ [13]: 0.25 µg/mL | Chemosensitising concentration FCZ ([14]; with KN20): 3.75 µg/mL
